In US6514517B2, “Antimicrobial coatings for medical devices” (Ethicon, Inc., priority 2001, dated 2003):

Tested on: Staphylococcus aureus ATCC33591
Experiment: Kirby-Bauer type test, coated suture sections on seeded agar plates
Assay type: cell-based
Method: In order to further evaluate the in-vitro potential for pH-lowering coatings, a study was carried out with Staphylococcus aureus ATCC33591. A series of coatings was prepared by dissolving 2.5, 5, 10 and 20 percent (w/w) of L(−)-lactide, respectively, in ethyl acetate. A second series of coatings was prepared by dissolving 2.5, 5, 10 and 20 percent (w/w) of L(−)-lactide in combination with 9 percent (w/w) polyoxaester, respectively, in ethyl acetate.
The polyoxaester coating copolymer used was a poly(ethylene 3,6,9-trioxaundecanedioate-seg-caprolactone-co-glycolide) resin comprised of approximately 17 weight percent polyoxaester prepolymer and a 83 weight percent polymerized mixture of approximately 91 mole percent ε-caprolactone and 9 mole percent glycolide. The polyoxaester is a polycondensation product of 3,6,9-trioxaundecanedioic acid and ethylene glycol made to have hydroxyl functionalities at both ends of each chain. The final resin is made through a ring opening polymerization of the ε-caprolactone and glycolide mixture using the polyoxaester as an α,ω-dihydroxy-macroinitiator. The inherent viscosity of the coating copolymer was 0.55 dL/g as determined in hexafluoroisopropanol (HFIP) at 25° C. at a concentration of 0.1 g/dL.
A third series of coatings was prepared by dissolving 2.5, 5, 10 and 20 percent (w/w) of glycolide, respectively, in ethyl acetate. A fourth series of coatings was prepared by dissolving 2.5, 5, 10 and 20 percent (w/w) of glycolide in combination with 9 percent (w/w) polyoxaester coating copolymer, respectively, in ethyl acetate. Approximately one-inch sections of commercial size 2/0 synthetic absorbable braided [10/90 poly(lactide-co-glycolide)] suture were dipped into the solutions and were dried overnight in a laminar flow hood, thereby providing a coated suture according to the present invention. In a Kirby-Bauer type test, plates were seeded with a 24-hour culture of Staph. aureus. The coated suture sections were placed on agar plates and the plates were incubated at 30-35° C. for 24 hours. […] For sutures coated from solutions comprising 2.5 percent and 5 percent lactide, respectively, zones of inhibition extending approximately 1 mm from the coated suture were observed. […] Utilizing a 20 percent lactide coating solution, the zone of inhibition was greater than 1 mm. All other coatings yielded results approximately the same as those obtained from a 10 percent lactide coating solution.
Referring to FIG. 3, a one inch-section of suture 30 coated with a solution of 20 percent by weight lactide in ethyl acetate was placed on a seeded agar plate and incubated as above. […] Referring to FIG. 2, when a section of untreated suture 20 is placed on a seeded agar plate and incubated as above, microorganisms 22 are present immediate and adjacent to the untreated suture and no zone of inhibition is noted around the suture.

[1] = 2/0 braided 10/90 poly(lactide-co-glycolide) suture coated from 2.5 percent solution in ethyl acetate, 30-35° C., 24 hours
[2] = 2/0 braided 10/90 poly(lactide-co-glycolide) suture coated from 5 percent solution in ethyl acetate, 30-35° C., 24 hours
[3] = 2/0 braided 10/90 poly(lactide-co-glycolide) suture coated from 10 percent solution in ethyl acetate, 30-35° C., 24 hours

| SMILES | zones of inhibition extending from the coated suture [1] | zones of inhibition extending from the coated suture [2] | zones of inhibition extending from the coated suture [3] | zone of inhibition extending from the coated suture (2/0 braided 10/90 poly(lactide-co-glycolide) suture coated from 20 percent solution in ethyl acetate, 30-35° C., 24 hours) | zone of inhibition (FIG. 3, in words) (one inch-section of suture coated with 20 percent by weight solution in ethyl acetate) |
| --- | --- | --- | --- | --- | --- |
| C[C@@H]1OC(=O)[C@H](C)OC1=O [L(−)-lactide] | approximately 1 mm | approximately 1 mm | approximately 1 mm | greater than 1 mm | Zone of inhibition 34 clearly surrounds coated suture 30 |
| O=C1COC(=O)CO1 [glycolide] | less than 1 mm | less than 1 mm | approximately 1 mm |  |  |
